Columns and labels:
NHE3 [1] = biological target: T1, NHE3 (Homo sapiens, UniProt P48764); experiment: Cell-based assay of NHE-3 activity (pre-incubation inhibition), human; conditions: human Preincubation
T1 construct: expressed in transfected cells
T1 sequence (P48764 26-834): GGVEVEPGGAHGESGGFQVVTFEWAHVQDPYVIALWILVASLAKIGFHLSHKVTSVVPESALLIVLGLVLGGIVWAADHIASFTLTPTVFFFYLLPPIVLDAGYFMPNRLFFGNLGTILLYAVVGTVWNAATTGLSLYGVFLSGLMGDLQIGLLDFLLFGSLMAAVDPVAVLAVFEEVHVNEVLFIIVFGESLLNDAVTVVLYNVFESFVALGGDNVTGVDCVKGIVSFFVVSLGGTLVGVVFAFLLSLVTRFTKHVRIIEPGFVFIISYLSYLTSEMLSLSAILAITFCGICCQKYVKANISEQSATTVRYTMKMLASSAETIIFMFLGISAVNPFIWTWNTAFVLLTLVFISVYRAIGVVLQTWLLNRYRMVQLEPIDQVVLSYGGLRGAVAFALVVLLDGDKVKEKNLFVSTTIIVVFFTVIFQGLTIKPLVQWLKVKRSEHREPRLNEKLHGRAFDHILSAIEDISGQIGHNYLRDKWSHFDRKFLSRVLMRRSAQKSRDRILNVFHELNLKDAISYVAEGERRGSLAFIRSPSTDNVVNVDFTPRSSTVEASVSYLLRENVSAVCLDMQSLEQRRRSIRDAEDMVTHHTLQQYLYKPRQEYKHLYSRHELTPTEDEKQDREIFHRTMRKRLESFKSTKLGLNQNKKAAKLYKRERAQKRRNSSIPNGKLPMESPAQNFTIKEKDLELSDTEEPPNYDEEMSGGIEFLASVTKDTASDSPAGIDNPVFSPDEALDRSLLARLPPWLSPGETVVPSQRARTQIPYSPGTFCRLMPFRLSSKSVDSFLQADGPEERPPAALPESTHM
T1 sequence (Q99653 2-195 partner limits assumed): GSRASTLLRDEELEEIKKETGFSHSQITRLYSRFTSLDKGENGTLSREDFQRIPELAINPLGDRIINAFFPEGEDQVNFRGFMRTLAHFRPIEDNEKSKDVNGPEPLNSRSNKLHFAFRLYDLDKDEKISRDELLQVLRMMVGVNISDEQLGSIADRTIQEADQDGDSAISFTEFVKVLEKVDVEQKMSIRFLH
Method in brief: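 PS120 fibroblasts stably expressing human NHE3 and NHERF2, loaded 30 min at 37 °C with 5 μM BCECF-AM in NH4Cl buffer, then acidified 10 min at room temperature in Na+-free buffer with 0–30 μM compound. Initial rate of BCECF fluorescence ratio change (FLIPR) per minute taken as Na+/H+ activity.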

NHE3 [2] = biological target: T1, NHE3; experiment: Cell-based assay of NHE-3 activity (persistent inhibition), human; conditions: human Persistence, 60 min incubation then washout
Method in brief: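 PS120 fibroblasts expressing human NHE3 with NHERF2 exposed to 0-30 μM compound for 60 min at RT, then washed out; cells acid-loaded by NH4Cl prepulse with BCECF-AM and Na+-free buffer. Na+-driven pH recovery started 10 min post-washout; initial rate of BCECF ratio change (FLIPR) taken as activity.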

## N#Cc1cc(Cl)cc2c1C[C@H](N1CCC[C@@H](N)C1)[C@H]2Oc1ccc(S(=O)(=O)NCCOCCOCCNC(=O)NCCCCNC(=O)NCCOCCOCCNS(=O)(=O)c2ccc(O[C@H]3c4cc(Cl)cc(C#N)c4C[C@@H]3N3CCC[C@@H](N)C3)c(F)c2)cc1F [Example 38]
NHE3 [1]
  % inhibition: A (NHE3 < 40%)
NHE3 [1]; 0-30 μM test compound
  pIC50: A (NHE3 pIC50 < 6)
NHE3 [2]
  % inhibition: A (NHE3 < 40%)
  pIC50: A (NHE3 pIC50 < 6)

## Cc1cc(S(=O)(=O)NCCOCCOCCNC(=O)NCCCCNC(=O)NCCOCCOCCNS(=O)(=O)c2ccc(O[C@H]3c4cc(Cl)cc(C#N)c4C[C@@H]3N3CCC[C@@H](N(C)C)C3)c(C)c2)ccc1O[C@H]1c2cc(Cl)cc(C#N)c2C[C@@H]1N1CCC[C@@H](N(C)C)C1 [Example 39]
NHE3 [1]
  % inhibition: A (NHE3 < 40%)
NHE3 [1]; 0-30 μM test compound
  pIC50: C (NHE3 pIC50 > 7)
NHE3 [2]
  % inhibition: A (NHE3 < 40%)
  pIC50: C (NHE3 pIC50 > 7)

## CN(C)[C@@H]1CCCN([C@H]2Cc3c(C#N)cc(Cl)cc3[C@@H]2Oc2ccc(S(=O)(=O)NCCOCCOCCNC(=O)NCCCCNC(=O)NCCOCCOCCNS(=O)(=O)c3ccc(O[C@H]4c5cc(Cl)cc(C#N)c5C[C@@H]4N4CCC[C@@H](N(C)C)C4)c(F)c3)cc2F)C1 [Example 40, 3-[2-(2-[2-[(4-[[(1S,2S)-6-Chloro-4-cyano-2-[(3R)-3-(dimethylamino)piperidin-1-yl]-2,3-dihydro-1H-inden-1-yl]oxy]-3-fluorobenzene)sulfonamido]ethoxy]ethoxy)ethyl]-1-[4-([[2-(2-[2-[(4-[[(1S,2S)-6-chloro-4-cyano-2-[(3R)-3-(dimethylamino)piperidin-1-yl]-2,3-dihydro-1H-inden-1-yl]oxy]-3-fluorobenzene)sulfonamido]ethoxy]ethoxy)ethyl]carbamoyl]amino)butyl]urea; bis(trifluoroacetic acid)]
NHE3 [1]
  % inhibition: A (NHE3 < 40%)
NHE3 [2]
  % inhibition: A (NHE3 < 40%)

## Cc1cc(S(=O)(=O)N2CC[C@H](COCCOCCNC(=O)NCCCCNC(=O)NCCOCCOC[C@H]3CCN(S(=O)(=O)c4ccc(O[C@H]5c6cc(Cl)cc(Cl)c6C[C@@H]5N(C)C)c(C)c4)C3)C2)ccc1O[C@H]1c2cc(Cl)cc(Cl)c2C[C@@H]1N(C)C [Example 44, 3-[2-(2-[[(3S)-1-[(4-[[(1S,2S)-4,6-dichloro-2-(dimethylamino)-2,3-dihydro-1H-inden-1-yl]oxy]-3-methylbenzene)sulfonyl]pyrrolidin-3-yl]methoxy]ethoxy)ethyl]-1-[4-([[2-(2-[[(3S)-1-[(4-[[(1S,2S)-4,6-dichloro-2-(dimethylamino)-2,3-dihydro-1H-inden-1-yl]oxy]-3-methylbenzene)sulfonyl]pyrrolidin-3-yl]methoxy]ethoxy)ethyl]carbamoyl]amino)butyl]urea; bis(trifluoroacetic acid)]
NHE3 [1]
  % inhibition: C (>70%)
NHE3 [1]; 0-30 μM test compound
  pIC50: C (NHE3 pIC50 > 7)
NHE3 [2]
  % inhibition: C (>70%)
  pIC50: B (NHE3 pIC50 6-7)

## Cc1cc(S(=O)(=O)N2CC[C@H](COCCOCCNC(=O)NCCCCNC(=O)NCCOCCOC[C@H]3CCN(S(=O)(=O)c4ccc(O[C@H]5c6cc(Cl)cc(C#N)c6C[C@@H]5N(C)C)c(C)c4)C3)C2)ccc1O[C@H]1c2cc(Cl)cc(C#N)c2C[C@@H]1N(C)C [Example 46, 3-[2-(2-[[(3S)-1-[(4-[[(1S,2S)-6-Chloro-4-cyano-2-(dimethylamino)-2,3-dihydro-1H-inden-1-yl]oxy]-3-methylbenzene)sulfonyl]pyrrolidin-3-yl]methoxy]ethoxy)ethyl]-1-[4-([[2-(2-[[(3S)-1-[(4-[[(1S,2S)-6-chloro-4-cyano-2-(dimethylamino)-2,3-dihydro-1H-inden-1-yl]oxy]-3-methylbenzene)sulfonyl]pyrrolidin-3-yl]methoxy]ethoxy)ethyl]carbamoyl]amino)butyl]urea; bis(trifluoroacetic acid)]
NHE3 [1]
  % inhibition: C (>70%)
NHE3 [1]; 0-30 μM test compound
  IC50: < 0.1 µM
NHE3 [2]
  % inhibition: C (>70%)
  IC50: < 0.1 µM
